Measurements taken from patent US10533201B2, “Enzymatic transphosphorylation of sugar substrates” (priority 2014, dated 2020).
Where two headings read alike, the source gives them in different places.

Assays:
Type in all cases: biochemical
glucose-1-phosphatase = glucose-1-phosphatase (Escherichia coli, UniProt P19926, D396N/Q163K/Y105D); conditions: 20 mM αGlc 1-P and 200 mM acceptor
Experimental: FIG. 10: Acceptor substrates phosphorylated by glucose-1-phosphatase. […] Product yields were determined at conversions >90% except for N-acetyl D-glucosamine (GlcNAc) 38%, D-glucosamine (D-GlcN) 81%, D-xylose (D-Xyl) 69%, L-Arabinose (L-Ara) 86%, D-Xylitol (D-Xol) 89% and L-Fucose (L-Fuc) 75%, respectively. All acceptors are phosphorylated at the C1-OH position except for (*) D-glucosamine where the predominant product was phosphorylated at the C6-OH. Light grey bars indicate rS/rP ratio, while the dark grey bars indicate the product yield.
Product yields were determined at conversions >90% except for N-acetyl D-glucosamine (GlcNAc) 38%, D-glucosamine (D-GlcN) 81%, D-xylose (D-Xyl) 69%, L-Arabinose (L-Ara) 86%, D-Xylitol (D-Xol) 89% and L-Fucose (L-Fuc) 75%, respectively. All acceptors are phosphorylated at the C1-OH position except for (*) D-glucosamine where the predominant product was phosphorylated at the C6-OH. Light grey bars indicate rS/rP ratio, while the dark grey bars indicate the product yield.

αGlc 1-P phosphatase [1] = biological target: T1, αGlc 1-P phosphatase (Escherichia coli, UniProt P19926, D396N/Q163K/Y105D); conditions: 20 mM substrate; for hydrolysis by αGlc 1-P phosphatase (in words): pyrophosphate and phytate at pH 7.0 and pH 4.5
T1 construct: Strep-tag (N); made in house; host or cells: E. coli Origami B (DE3), cytoplasmic, pMS470_dsbC vector (DsbC co-expressed)
Experimental: Inorganic phosphate was determined colorimetrically at 850 nm (56).
Hydrolysis reactions were carried out at an initial substrate concentration of 20 mM. […] Samples were taken in 15 min intervals, heat-treated (99° C., 5 min), and centrifuged at 20,000 g for 5 min. The release of phosphate was measured, and the initial rate V (mM min^−1) was determined from the linear relationship between phosphate concentration and time. […] (2)
A series of phosphorylated sugars were tested as substrates for hydrolysis by phosphatase.

αGlc 1-P phosphatase [2] = biological target: T1, αGlc 1-P phosphatase; conditions: for Fru 1-P kcat_app (formation) / Fru 6-P kcat_app (formation) / Glc 6-P kcat_app (formation) / Glc 1-P kcat_app (consumption) / Phosphate kcat_app (release): pH 7.0, 37° C.
Experimental: Fru 6-P was measured using an assay with mannitol 1-phosphate dehydrogenase (52). […] (1)
Fru (100, 200, 400 or 600 mM) or Glc (200 mM) was used as the acceptor substrate. […] Sampling was done to allow for determination of initial rates, but the full reaction time course was also recorded. Relevant kcat_app values for substrate consumption, phosphate release, and phosphoryl transfer were obtained from the corresponding V values using equation 2. Internal consistency of the data was always checked by mass balance. pH dependence of phosphoryl transfer. […] A 50 mM Mes buffer was used, except at pH ≤6.0 where 50 mM Mes and 20 mM sodium acetate were used, and at pH 8.0 where 50 mM Mes and 50 mM Tes were used. Buffer pH values were adjusted at 37° C. and controlled before and after recording each enzyme-catalyzed reaction. Sampling and analyses were as described above.
For data analysis by non-linear least-squares regression, SigmaPlot 2004 version 9.0 was used. Equation 3 describes a pH dependence where activity (expressed as logarithmic kcat_app) is constant at low pH and decreases above pKB. C is the pH-independent value of kcat_app at the optimum state of protonation, K is the proton dissociation constant and [H^+] is the proton concentration. log(kcat_app)=log(C/(1+K/[H^+])) (3) High Performance Anion Exchange Chromatography with Pulsed Amperometric Detection (HPAEC-PAD).
Selected samples were analyzed on a Dionex BioLC system (Dionex Corporation, Sunnyvale, USA) equipped with a CarboPac PA10 column (4×250 mm) and an Amino Trap guard column (4×50 mm) thermostated at 30° C. […] Elution was carried out at a flow rate of 0.9 mL/min with the following method: isocratic flow of 52 mM NaOH for 20 min, followed by a linear gradient from 100 mM NaOAc to 400 mM NaOAc, applied within 25 min in an isocratic background of 100 mM NaOH. The column was washed for 5 min with 52 mM NaOH.

[3] = 0.1 μM enzyme, 37° C., 50 mM Mes pH 7.0, n.d. = no activity above assay detection limit
[4] = 200 mM Glc acceptor, 20 mM αGlc 1-P
[5] = 200 mM Glc acceptor, 20 mM αGlc 1-P, pH 7.0

T1 sequence (P19926 other isoform, or with tags, fused parts or gaps Y105D/Q163K/D396N): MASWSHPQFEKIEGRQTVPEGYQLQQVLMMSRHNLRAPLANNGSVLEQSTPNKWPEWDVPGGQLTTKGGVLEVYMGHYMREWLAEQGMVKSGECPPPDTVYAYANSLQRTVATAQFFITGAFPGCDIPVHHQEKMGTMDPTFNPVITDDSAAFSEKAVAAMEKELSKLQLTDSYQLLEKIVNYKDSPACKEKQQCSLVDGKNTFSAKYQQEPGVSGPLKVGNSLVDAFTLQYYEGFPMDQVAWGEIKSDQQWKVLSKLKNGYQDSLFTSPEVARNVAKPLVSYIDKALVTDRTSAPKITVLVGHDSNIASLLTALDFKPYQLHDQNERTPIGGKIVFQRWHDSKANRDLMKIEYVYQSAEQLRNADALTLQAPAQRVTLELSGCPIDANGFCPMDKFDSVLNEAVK
glucose-1-phosphatase, sequence (P19926 other isoform, or with tags, fused parts or gaps Y105D/Q163K/D396N): as above

O=C[C@H](O)[C@@H](O)[C@H](O)[C@H](O)C(=O)O [D-Glucuronic acid]
phosphorylation of acceptor by glucose-1-phosphatase (in words) (glucose-1-phosphatase): not phosphorylated

N[C@H]1C(O)O[C@H](CO)[C@H](O)[C@@H]1O (stereo partly drawn) [D-galactosamine]
phosphorylation of acceptor by glucose-1-phosphatase (in words) (glucose-1-phosphatase): not phosphorylated

O=C(COP(=O)(O)O)[C@@H](O)[C@H](O)[C@H](O)CO [Fru 1-P, D-fructose 1-phosphate]
αGlc 1-P phosphatase kcat_app, hydrolysis (αGlc 1-P phosphatase [1]; [3]): 22 s⁻¹
Fru 1-P kcat_app (formation) (αGlc 1-P phosphatase [2]; Fru 100 mM, 20 mM αGlc 1-P): 39 s⁻¹
Fru 1-P kcat_app (formation) (αGlc 1-P phosphatase [2]; Fru 200 mM, 20 mM αGlc 1-P): 88 s⁻¹
Fru 1-P kcat_app (formation) (αGlc 1-P phosphatase [2]; Fru 400 mM, 20 mM αGlc 1-P): 111^a s^−1
Fru 1-P kcat_app (formation) (αGlc 1-P phosphatase [2]; Fru 600 mM, 20 mM αGlc 1-P): 135 s⁻¹

O=C(CO)[C@@H](O)[C@H](O)[C@H](O)COP(=O)(O)O [Fru 6-P, D-fructose-6-phosphate]
αGlc 1-P phosphatase kcat_app, hydrolysis (αGlc 1-P phosphatase [1]; [3]): 22^a s^−1
Fru 6-P kcat_app (formation) (αGlc 1-P phosphatase [2]; Fru 100 mM, 20 mM αGlc 1-P): 11^b s^−1
Fru 6-P kcat_app (formation) (αGlc 1-P phosphatase [2]; Fru 200 mM, 20 mM αGlc 1-P): 20^ s^−1
Fru 6-P kcat_app (formation) (αGlc 1-P phosphatase [2]; Fru 400 mM, 20 mM αGlc 1-P): 28^ s^−1
Fru 6-P kcat_app (formation) (αGlc 1-P phosphatase [2]; Fru 600 mM, 20 mM αGlc 1-P): 36^c s^−1

O=C[C@H](O)[C@@H](O)[C@H](O)[C@H](O)COP(=O)(O)O [Glc 6-P, D-glucose-6-phosphate]
αGlc 1-P phosphatase kcat_app, hydrolysis (αGlc 1-P phosphatase [1]; [3]): 56 s⁻¹
kcat_app ratio for formation of Glc 6-P and phosphate (αGlc 1-P phosphatase [2]; [4]): 8.5
kcat_app for Glc 6-P synthesis (αGlc 1-P phosphatase [2]; [5]): 34 s⁻¹
Glc 6-P kcat_app (formation) (αGlc 1-P phosphatase [2]; Fru 100 mM, 20 mM αGlc 1-P): 5 s⁻¹
Glc 6-P kcat_app (formation) (αGlc 1-P phosphatase [2]; Fru 200 mM, 20 mM αGlc 1-P): 6 s⁻¹
Glc 6-P kcat_app (formation) (αGlc 1-P phosphatase [2]; Fru 400 mM, 20 mM αGlc 1-P): 4 s⁻¹
Glc 6-P kcat_app (formation) (αGlc 1-P phosphatase [2]; Fru 600 mM, 20 mM αGlc 1-P): 5 s⁻¹

O=P(O)(O)O[C@H]1[C@H](OP(=O)(O)O)[C@@H](OP(=O)(O)O)[C@H](OP(=O)(O)O)[C@@H](OP(=O)(O)O)[C@H]1OP(=O)(O)O [Phytate, myo-inositol hexakisphosphate]
hydrolysis by αGlc 1-P phosphatase (in words) (αGlc 1-P phosphatase [1]): weakly active
αGlc 1-P phosphatase kcat_app, hydrolysis (αGlc 1-P phosphatase [1]; reactions at pH 7.0 and pH 4.5 (50 mM sodium acetate), phytate active only at pH 4.5, n.d. = no activity above detection limit): 2.1 s⁻¹

O=P(O)(O)OP(=O)(O)O [Pyrophosphate]
hydrolysis by αGlc 1-P phosphatase (in words) (αGlc 1-P phosphatase [1]): not hydrolyzed

O=P(O)(O)O[C@H]1O[C@H](CO)[C@@H](O)[C@H](O)[C@H]1O [αGlc 1-P, alpha-glucose-1-phosphate]
αGlc 1-P phosphatase kcat_app, hydrolysis (αGlc 1-P phosphatase [1]; [3]): 40 s⁻¹
enhancement of α-Glc 1-P consumption rate compared to control without Fru (αGlc 1-P phosphatase [2]; 200 mM Fru, 20 mM α-Glc 1-P): about 3 fold
kcat_app for α-Glc 1-P consumption (αGlc 1-P phosphatase [2]; [5]): 40 s⁻¹
Glc 1-P kcat_app (consumption) (αGlc 1-P phosphatase [2]; Fru 0 mM, 20 mM αGlc 1-P): 40 s⁻¹
Glc 1-P kcat_app (consumption) (αGlc 1-P phosphatase [2]; Fru 100 mM, 20 mM αGlc 1-P): 73 s⁻¹
Glc 1-P kcat_app (consumption) (αGlc 1-P phosphatase [2]; Fru 200 mM, 20 mM αGlc 1-P): 137 s⁻¹
Glc 1-P kcat_app (consumption) (αGlc 1-P phosphatase [2]; Fru 400 mM, 20 mM αGlc 1-P): 162 s⁻¹
Glc 1-P kcat_app (consumption) (αGlc 1-P phosphatase [2]; Fru 600 mM, 20 mM αGlc 1-P): 189 s⁻¹
increase of kcat_app (α-Glc 1-P) in hyperbolic dependence of the Fru concentration (αGlc 1-P phosphatase [2]; Fru 100-600 mM): about 5 fold

O=P(O)(O)O[C@@H]1O[C@H](CO)[C@@H](O)[C@H](O)[C@H]1O [βGlc 1-P]
hydrolysis by αGlc 1-P phosphatase (in words) (αGlc 1-P phosphatase [1]): completely inactive

phosphate
decrease of phosphate release rate compared to control without Fru (αGlc 1-P phosphatase [2]; 200 mM Fru, 20 mM α-Glc 1-P): about 2 fold
suppression of phosphate release rate compared to control reaction lacking Glc (αGlc 1-P phosphatase [2]; [4]): about 10 fold
kcat_app of phosphate formation (αGlc 1-P phosphatase [2]; [5]): 4 s⁻¹
Phosphate kcat_app (release) (αGlc 1-P phosphatase [2]; Fru 0 mM, 20 mM αGlc 1-P): 40 s⁻¹
Phosphate kcat_app (release) (αGlc 1-P phosphatase [2]; Fru 100 mM, 20 mM αGlc 1-P): 21 s⁻¹
Phosphate kcat_app (release) (αGlc 1-P phosphatase [2]; Fru 200 mM, 20 mM αGlc 1-P): 18 s⁻¹
Phosphate kcat_app (release) (αGlc 1-P phosphatase [2]; Fru 400 mM, 20 mM αGlc 1-P): 14 s⁻¹
Phosphate kcat_app (release) (αGlc 1-P phosphatase [2]; Fru 600 mM, 20 mM αGlc 1-P): 13 s⁻¹
